Several values for one entry are separate records, joined by “and”; a condition that tells them apart may be missing. Equal entries are not always repeated. Inconclusive results and toxic doses are left out. No stated cut-off is given here; in the data, active means T/C of 150% or more; inactive means T/C below 125%.
System: L1210 leukemia ip in BDF1 mice, survival T/C
Experiment: NCI In Vivo Anticancer Drug Screen. Data for tumor model L1210 Leukemia (intraperitoneal) in B6D2F1 (BDF1) mice
Details: endpoint: mean survival time, higher = longer survival
Procedure, shortened: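 Tumor was transplanted into mice, which were then dosed with test compound or vehicle alone. Survival was recorded for each group, and the treated figure was expressed relative to the control figure.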

[1] = dose: 100.0 mg/kg/injection, schedule: Q01DX009 (ip), vehicle: saline
[2] = dose: 100.0 mg/kg/injection, schedule: Q04DX003 (ip), vehicle: saline
[3] = dose: 200.0 mg/kg/injection, schedule: Q01DX009 (ip), vehicle: saline
[4] = dose: 200.0 mg/kg/injection, schedule: Q04DX003 (ip), vehicle: saline
[5] = dose: 400.0 mg/kg/injection, schedule: Q01DX009 (ip), vehicle: saline
[6] = dose: 400.0 mg/kg/injection, schedule: Q04DX003 (ip), vehicle: saline
[7] = dose: 50.0 mg/kg/injection, schedule: Q01DX009 (ip), vehicle: Klucel (hydroxypropylcellulose) (HPC)
[8] = dose: 100.0 mg/kg/injection, schedule: Q01DX009 (ip), vehicle: Klucel (hydroxypropylcellulose) (HPC)
[9] = dose: 200.0 mg/kg/injection, schedule: Q01DX009 (ip), vehicle: Klucel (hydroxypropylcellulose) (HPC)
[10] = dose: 100.0 mg/kg/injection, schedule: Q04DX002 (ip), vehicle: saline with Tween-80
[11] = dose: 200.0 mg/kg/injection, schedule: Q04DX002 (ip), vehicle: saline with Tween-80
[12] = dose: 400.0 mg/kg/injection, schedule: Q04DX002 (ip), vehicle: saline with Tween-80
[13] = dose: 100.0 mg/kg/injection, schedule: Q01DX009 (ip), vehicle: saline with Tween-80
[14] = dose: 100.0 mg/kg/injection, schedule: Q04DX003 (ip), vehicle: saline with Tween-80
[15] = dose: 200.0 mg/kg/injection, schedule: Q01DX009 (ip), vehicle: saline with Tween-80
[16] = dose: 200.0 mg/kg/injection, schedule: Q04DX003 (ip), vehicle: saline with Tween-80
[17] = dose: 400.0 mg/kg/injection, schedule: Q01DX009 (ip), vehicle: saline with Tween-80
[18] = dose: 400.0 mg/kg/injection, schedule: Q04DX003 (ip), vehicle: saline with Tween-80
[19] = dose: 50.0 mg/kg/injection, schedule: Q01DX001 (ip), vehicle: carboxymethylcellulose (CMC)
[20] = dose: 50.0 mg/kg/injection, schedule: Q04DX003 (ip), vehicle: Klucel (hydroxypropylcellulose) (HPC)
[21] = dose: 100.0 mg/kg/injection, schedule: Q04DX003 (ip), vehicle: Klucel (hydroxypropylcellulose) (HPC)
[22] = dose: 75.0 mg/kg/injection, schedule: Q01DX001 (ip), vehicle: saline
[23] = dose: 150.0 mg/kg/injection, schedule: Q01DX001 (ip), vehicle: saline

Measured: T/C

CNNC(=O)c1ccncc1
inactive: dose: 62.0 mg/kg/injection, schedule: Q01DX015 (ip), vehicle: water 91 % of control | dose: 125.0 mg/kg/injection, schedule: Q01DX015 (ip), vehicle: water 98 % of control

OC(Cc1cncc(CC(O)(C(F)(F)F)C(F)(F)F)n1)(C(F)(F)F)C(F)(F)F
inactive: [1] 95 % of control | [2] 96 % of control | [3] 105 % of control | [4] 92 % of control | [5] 98 % of control | [6] 97 % of control

CCOC(=O)NC1Cc2cc(C)cc(C)c21 (centres undefined)
inactive: dose: 10.0 mg/kg/injection, schedule: Q04DX002 (ip), vehicle: Klucel (hydroxypropylcellulose) (HPC) 120 % of control | dose: 20.0 mg/kg/injection, schedule: Q04DX002 (ip), vehicle: Klucel (hydroxypropylcellulose) (HPC) 100 % of control | dose: 40.0 mg/kg/injection, schedule: Q04DX002 (ip), vehicle: Klucel (hydroxypropylcellulose) (HPC) 103 % of control

Cc1cc2c(-c3ccccc3)nc3ccccc3n2c1Cl
inactive: [7] 92 % of control | [8] 95 % of control | [9] 103 % of control

CC1C=CC(C(N)C(=O)O)O1 (centres undefined)
inactive: dose: 100.0 mg/kg/injection, schedule: Q01DX001 (ip), vehicle: saline 103 % of control | dose: 200.0 mg/kg/injection, schedule: Q01DX001 (ip), vehicle: saline 95 % of control | dose: 400.0 mg/kg/injection, schedule: Q01DX001 (ip), vehicle: saline 101 % of control

Oc1cc2ccccc2cc1O
inactive: [10] 104 % of control | [11] 97 % of control | [12] 93 % of control

COc1ccc(C=NC(C)(C)CO)cc1OC
inactive: dose: 100.0 mg/kg/injection, schedule: Q01DX001 (ip), vehicle: steriod suspending solution 108 % of control | dose: 200.0 mg/kg/injection, schedule: Q01DX001 (ip), vehicle: steriod suspending solution 103 % of control | dose: 400.0 mg/kg/injection, schedule: Q01DX001 (ip), vehicle: steriod suspending solution 101 % of control

CC(=O)OCC(OC(C)=O)C(OC(C)=O)C(OC(C)=O)C(/C=N/NC(N)=S)=N/NC(N)=S (centres undefined)
inactive: dose: 100.0 mg/kg/injection, schedule: Q01DX009 (ip), vehicle: other 95 % of control | dose: 100.0 mg/kg/injection, schedule: Q04DX003 (ip), vehicle: other 98 % of control | dose: 200.0 mg/kg/injection, schedule: Q01DX009 (ip), vehicle: other 91 % of control | dose: 200.0 mg/kg/injection, schedule: Q04DX003 (ip), vehicle: other 103 % of control | dose: 400.0 mg/kg/injection, schedule: Q04DX003 (ip), vehicle: other 103 % of control

COc1ccc(OC)c(N=C2C(=O)Nc3ccc(Br)cc32)c1
inactive: dose: 100.0 mg/kg/injection, schedule: Q01DX001 (ip), vehicle: saline with Tween-80 92 % of control | [13] 100 % of control | [10] 108 % of control and 113 % of control | [14] 101 % of control | dose: 200.0 mg/kg/injection, schedule: Q01DX001 (ip), vehicle: saline with Tween-80 88 % of control | [15] 94 % of control and 100 % of control | [11] 95 % of control and 97 % of control | [16] 93 % of control | dose: 400.0 mg/kg/injection, schedule: Q01DX001 (ip), vehicle: saline with Tween-80 90 % of control | [17] 101 % of control and 92 % of control | [12] 88 % of control and 89 % of control | [18] 88 % of control

O=C(O)c1cc(S(=O)(=O)O)cc(Br)c1O
inactive: dose: 100.0 mg/kg/injection, schedule: Q04DX002 (ip), vehicle: Klucel (hydroxypropylcellulose) (HPC) 95 % of control | dose: 200.0 mg/kg/injection, schedule: Q04DX002 (ip), vehicle: Klucel (hydroxypropylcellulose) (HPC) 103 % of control | dose: 400.0 mg/kg/injection, schedule: Q04DX002 (ip), vehicle: Klucel (hydroxypropylcellulose) (HPC) 89 % of control

N#CCC(=O)Cc1ccccc1[N+](=O)[O-]
inactive: [14] 95 % of control | [16] 100 % of control | [18] 94 % of control

NC(=O)C1(Nc2ccc(-c3ccc(Cl)cc3)cc2)CCCC1
inactive: [19] 96 % of control | dose: 100.0 mg/kg/injection, schedule: Q01DX001 (ip), vehicle: carboxymethylcellulose (CMC) 93 % of control | dose: 200.0 mg/kg/injection, schedule: Q01DX001 (ip), vehicle: carboxymethylcellulose (CMC) 90 % of control | dose: 400.0 mg/kg/injection, schedule: Q01DX001 (ip), vehicle: carboxymethylcellulose (CMC) 87 % of control

CCCCCCCCCCCCC[n+]1cccc(C#N)c1
inactive: dose: 5.0 mg/kg/injection, schedule: Q04DX003 (ip), vehicle: saline 100 % of control | dose: 10.0 mg/kg/injection, schedule: Q01DX001 (ip), vehicle: saline 94 % of control | dose: 10.0 mg/kg/injection, schedule: Q04DX003 (ip), vehicle: saline 96 % of control | dose: 20.0 mg/kg/injection, schedule: Q01DX001 (ip), vehicle: saline 103 % of control | dose: 20.0 mg/kg/injection, schedule: Q04DX003 (ip), vehicle: saline 96 % of control

NC(=O)CC(N)c1nn[nH]n1 (centres undefined)
inactive: [1] 89 % of control | [2] 97 % of control | [3] 98 % of control | [4] 100 % of control | [5] 102 % of control | [6] 103 % of control

O=C(O)/C(=C\c1ccc([N+](=O)[O-])cc1)c1cccc2ccccc12
inactive: [20] 94 % of control | [8] 93 % of control | [21] 89 % of control | [9] 98 % of control | dose: 200.0 mg/kg/injection, schedule: Q04DX003 (ip), vehicle: Klucel (hydroxypropylcellulose) (HPC) 91 % of control

CC(C)(CNC1CCCC1)OC(=O)c1ccccc1
inactive: [22] 97 % of control and 95 % of control | [23] 107 % of control

c1ccc2c(c1)ccc1c[n+]3c(ccc4ccccc43)cc12
inactive: dose: 25.0 mg/kg/injection, schedule: Q01DX001 (ip), vehicle: carboxymethylcellulose (CMC) 104 % of control | [19] 108 % of control

CC(=O)Nc1ccc(C(=O)CCl)cc1
inactive: dose: 25.0 mg/kg/injection, schedule: Q01DX009 (ip), vehicle: Klucel (hydroxypropylcellulose) (HPC) 95 % of control | dose: 25.0 mg/kg/injection, schedule: Q04DX003 (ip), vehicle: Klucel (hydroxypropylcellulose) (HPC) 93 % of control and 101 % of control | [19] 101 % of control | [7] 88 % of control | [20] 105 % of control | [21] 110 % of control

COc1ccc2c3c1OC1C(C)(O)C(O)CC4C(C2)N(C)CCC341 (centres undefined)
inactive: [22] 98 % of control | [23] 104 % of control | dose: 300.0 mg/kg/injection, schedule: Q01DX001 (ip), vehicle: saline 98 % of control

COC1(c2ccc(C(F)(F)F)cc2)OC1(C)C (centres undefined)
inactive: [13] 98 % of control | [14] 96 % of control | [15] 100 % of control | [16] 102 % of control | [17] 104 % of control | [18] 102 % of control

CCCCCCCNC(=S)NNC(=O)c1ccncc1
inactive: [8] 97 % of control | [9] 100 % of control | dose: 400.0 mg/kg/injection, schedule: Q01DX009 (ip), vehicle: Klucel (hydroxypropylcellulose) (HPC) 100 % of control

S=C=NCCc1ccccc1
inactive: dose: 12.5 mg/kg/injection, schedule: Q01DX009 (ip), vehicle: saline with Tween-80 101 % of control | dose: 25.0 mg/kg/injection, schedule: Q01DX009 (ip), vehicle: saline with Tween-80 104 % of control | dose: 50.0 mg/kg/injection, schedule: Q01DX009 (ip), vehicle: saline with Tween-80 108 % of control | [13] 87 % of control

O=C(CCN1CCCC1)c1ccc(F)cc1
inactive: dose: 25.0 mg/kg/injection, schedule: Q01DX009 (ip), vehicle: saline 109 % of control | dose: 50.0 mg/kg/injection, schedule: Q01DX009 (ip), vehicle: saline 115 % of control
